The values below come from patent US12252524B2, “GIP/GLP1 co-agonist compounds” (Eli Lilly and Company, priority 2018, dated 2025).

What is called Ki is the dissociation constant of the complex between target and ligand, obtained from inhibition or displacement. Broadly, the EC50 is the concentration giving half of the maximal effect.

One assay addresses T1, human Gcg receptor (Homo sapiens, UniProt P47871).
T1 construct: expressed in transfected cells; crude membranes
As to the kind of experiment: [125I]-Glucagon binding (SPA), human Gcg receptor. Conditions: read-out: hGLcgR Ki, nM (SEM, n). The protocol:
(§1) Two methods are used for the preparation of crude cell membranes.
(§2) Method 1: Frozen cell pellets are lysed on ice in hypotonic buffer containing 50 mM Tris HCl, pH 7.5, and Roche Complete™ Protease Inhibitors with EDTA. The cell suspension is disrupted using a glass Potter-Elvehjem homogenizer fitted with a Teflon® pestle for 25 strokes. The homogenate is centrifuged at 4° C. at 1100×g for 10 minutes. The supernatant is collected and stored on ice while the pellets are resuspended in homogenization buffer and rehomogenized as described above. The homogenate is centrifuged at 1100×g for 10 minutes. The second supernatant is combined with the first supernatant and centrifuged at 35000×g for 1 hour at 4° C. The resulting membrane pellet is resuspended in homogenization buffer containing protease inhibitors at approximately 1 to 3 mg/mL, quick frozen in liquid nitrogen and stored as aliquots in a−80° C. freezer until use.
(§3) Method 2: Frozen cell pellets are lysed on ice in hypotonic buffer containing 50 mM Tris HCl, pH 7.5, 1 mM MgCl2, Roche Complete™ EDTA-free Protease Inhibitors and 25 units/ml DNAse I (Invitrogen). The cell suspension is disrupted using a glass Potter-Elvehjem homogenizer fitted with a Teflon® pestle for 20 to 25 strokes. The homogenate is centrifuged at 4° C. at 1800×g for 15 minutes. The supernatant is collected and stored on ice while the pellets are resuspended in homogenization buffer (without DNAse I) and rehomogenized as described above. The homogenate is centrifuged at 1800×g for 15 minutes. The second supernatant is combined with the first supernatant and centrifuged an additional time at 1800×g for 15 minutes. The overall supernatant is then centrifuged at 25000×g for 30 minutes at 4° C. The resulting membrane pellet is resuspended in homogenization buffer (without DNAse I) containing protease inhibitors at approximately 1 to 3 mg/mL and stored as aliquots in a−80° C. freezer until use.
The human Gcg receptor binding assays are performed using a Scintillation Proximity Assay (SPA) format with wheat germ agglutinin (WGA) beads (Perkin Elmer). The binding buffer contains 25 mM 4-(2-hydroxyethyl)-1-piperazineethanesulfonic acid (HEPES), pH 7.4, 2.5 mM CaCl2, 1 mM MgCl2, 0.1% (w/v) bacitracin (Research Products), 0.003% (w/v) Polyoxyethylenesorbitan monolaurate (TWEEN©-20), and Roche Complete™ Protease Inhibitors without EDTA. […] Plates are sealed and mixed on a plate shaker (setting 6) for 1 minute and read with a PerkinElmer Trilux MicroBeta© scintillation counter after 12 hours of incubation/settling time at room temperature.
(§4) Data are analyzed using four-parameter (curve maximum, curve minimum, IC50, Hill slope) nonlinear regression routines (Genedata Screener, version 12.0.4, Genedata AG, Basal, Switzerland). […] Values for Ki are reported as the geometric mean, with error expressed as the standard error of the mean (SEM) and n is equal to the number of independent replicates (determined in assays performed on different days). […] The Ki Ratio is a rapid indication of the apparent affinity of a peptide compared to the native control peptide. […] SEM is only calculated when n=2 or greater non-qualified results exist. Means are expressed as GeoMetric means with the standard error of the mean (SEM) and the number of replicates (n) indicated in parenthesis.

Another assay deals with T2, human GIP receptor (Homo sapiens, UniProt P48546).
T2 construct: expressed in transfected cells; crude membranes
T2 sequence (P48546 22-466): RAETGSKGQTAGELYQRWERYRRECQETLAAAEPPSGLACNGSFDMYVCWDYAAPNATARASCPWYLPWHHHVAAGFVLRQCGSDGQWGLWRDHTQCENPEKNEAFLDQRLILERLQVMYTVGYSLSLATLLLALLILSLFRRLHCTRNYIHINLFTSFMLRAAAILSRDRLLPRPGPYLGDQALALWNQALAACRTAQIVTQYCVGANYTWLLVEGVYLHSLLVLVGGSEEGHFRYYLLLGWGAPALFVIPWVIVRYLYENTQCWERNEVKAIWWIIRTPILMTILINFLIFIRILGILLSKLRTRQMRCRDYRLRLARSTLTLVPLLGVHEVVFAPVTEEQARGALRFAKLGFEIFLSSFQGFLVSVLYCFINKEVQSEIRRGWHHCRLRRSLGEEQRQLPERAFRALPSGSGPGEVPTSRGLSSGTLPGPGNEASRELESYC
Description: [125I]-GIP binding (SPA), human GIP receptor. Conditions: read-out: hGIPR Ki, nM (SEM, n). The protocol: as §1, §2, §3
The binding buffer contains 25 mM HEPES, pH 7.4, 2.5 mM CaCl2, 1 mM MgCl2, 0.1% (w/v) bacitracin, 0.003% (w/v) TWEEN©-20, and Roche Complete™ Protease Inhibitors without EDTA. Peptides and GIP are thawed and 3 fold serially diluted in 100% DMSO (10 point concentration response curves). […] Plates are sealed and mixed on a plate shaker (setting 6) for 1 minute and read with a PerkinElmer Trilux MicroBeta© scintillation counter after 2.5 to 12 hours of incubation/settling time at room temperature.
as §4

Assay [1] concerns the target human GLP-1 receptor (GLP-1R) (Homo sapiens, UniProt P43220). Description: cAMP pharmacological functional assay in presence of casein, hGLP-1R. Type of assay: cell-based. The settings on record: HEK293 cells expressing hGLP-1R, 0.1% Casein, geometric mean; read-out: hGLP1R cAMP Rel EC50 nM (SEM, n).
The target in assay [2] is T3, gastric inhibitory peptide receptor (GIPR) (Homo sapiens, UniProt P48546).
T3 sequence (P48546 22-466): T2 sequence (P48546 22-466)
Description: cAMP pharmacological functional assay in presence of casein, hGIPR. Conditions: HEK293 cells expressing hGIPR, 0.1% Casein, geometric mean; read-out: hGIPR cAMP Rel EC50 nM (SEM, n). It counts as cell-based.

A further assay has as its target human GLP-1R (Homo sapiens, UniProt P43220). Description: [125I]-GLP-1 binding (SPA), human GLP-1 receptor. Conditions: read-out: hGLP1R Ki, (nM) (SEM, n). More on the design: expressed in transfected cells; crude membranes. As for the experimental part: as §1, §2, §3
The binding buffer contains 25 mM HEPES, pH 7.4, 2.5 mM CaCl2, 1 mM MgCl2, 0.1% (w/v) bacitracin, 0.003% (w/v) TWEEN©-20, and Roche Complete™ Protease Inhibitors without EDTA.
as §4

Numbered stars: 1 amine (or outer) side, 2 acyl side, 3 side chain; on linkers, the order of the positions; unused ones are H or OH. Square brackets hold non-standard residues; d marks the D form. Side chains are listed from the residue outwards. Peptide text beside a SMILES is read from it. * marks the point of attachment. C20 diacid = O=C(O)CCCCCCCCCCCCCCCCCCC(=O)*; C18 diacid = O=C(O)CCCCCCCCCCCCCCCCC(=O)*; αMePhe(2-F) = C[C@](N)(Cc1ccccc1F)C(=O)O; γGlu = O=C(O)[C@H](CCC(=O)[*:2])N[*:1]; Aad = N[C@@H](CCCC(=O)O)C(=O)O; αMeL = CC(C)C[C@](C)(N)C(=O)O; AEEA = NCCOCCOCC(=O)O; Aib = CC(C)(N)C(=O)O

T1 sequence (P47871 26-477): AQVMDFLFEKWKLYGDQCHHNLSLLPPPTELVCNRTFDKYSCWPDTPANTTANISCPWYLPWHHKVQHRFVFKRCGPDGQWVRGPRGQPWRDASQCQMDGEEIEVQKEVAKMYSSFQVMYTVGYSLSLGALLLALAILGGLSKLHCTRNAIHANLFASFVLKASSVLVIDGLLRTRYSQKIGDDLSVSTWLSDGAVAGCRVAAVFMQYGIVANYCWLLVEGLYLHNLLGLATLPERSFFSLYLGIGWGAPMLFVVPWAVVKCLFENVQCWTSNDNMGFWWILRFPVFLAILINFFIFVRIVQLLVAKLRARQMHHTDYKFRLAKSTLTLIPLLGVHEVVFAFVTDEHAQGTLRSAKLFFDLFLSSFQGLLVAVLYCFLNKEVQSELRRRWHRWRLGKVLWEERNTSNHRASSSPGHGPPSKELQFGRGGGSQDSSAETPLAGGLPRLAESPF
human GLP-1R, sequence (P43220 24-463): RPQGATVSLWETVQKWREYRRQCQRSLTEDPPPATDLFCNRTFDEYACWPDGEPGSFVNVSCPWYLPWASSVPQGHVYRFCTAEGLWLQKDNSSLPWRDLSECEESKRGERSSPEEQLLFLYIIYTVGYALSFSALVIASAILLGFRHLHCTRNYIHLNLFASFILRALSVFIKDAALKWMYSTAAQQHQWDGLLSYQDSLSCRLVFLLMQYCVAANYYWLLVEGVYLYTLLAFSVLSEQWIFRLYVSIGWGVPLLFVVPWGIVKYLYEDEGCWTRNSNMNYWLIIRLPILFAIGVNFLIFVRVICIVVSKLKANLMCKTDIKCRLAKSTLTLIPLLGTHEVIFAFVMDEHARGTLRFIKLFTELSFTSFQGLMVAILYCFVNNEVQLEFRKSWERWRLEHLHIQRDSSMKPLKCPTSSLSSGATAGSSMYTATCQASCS
human GLP-1 receptor (GLP-1R), sequence (P43220 24-463): as above

As for `CC[C@H](C)[C@H](NC(=O)[C@H](CC(C)C)NC(=O)[C@H](Cc1ccc(O)cc1)NC(=O)[C@H](CCC(=O)O)NC(=O)[C@@H](NC(=O)[C@H](Cc1ccccc1)NC(=O)[C@H](C)NC(=O)[C@H](C)NC(=O)[C@H](CCC(N)=O)NC(=O)[C@H](C)NC(=O)[C@H](CCCCNC(=O)COCCOCCNC(=O)COCCOCCNC(=O)CC[C@H](NC(=O)CCCCCCCCCCCCCCCCCCC(=O)O)C(=O)O)NC(=O)[C@H](CCCCN)NC(=O)[C@H](CC(=O)O)NC(=O)[C@H](CC(C)C)NC(=O)[C@H](CC(C)C)NC(=O)[C@@H](NC(=O)[C@H](CO)NC(=O)[C@H](Cc1ccc(O)cc1)NC(=O)[C@H](CC(=O)O)NC(=O)[C@H](CO)NC(=O)[C@@H](NC(=O)[C@H](Cc1ccccc1)NC(=O)[C@@H](NC(=O)CNC(=O)[C@H](CCC(=O)O)NC(=O)C(C)(C)NC(=O)[C@@H](N)Cc1ccc(O)cc1)[C@@H](C)O)[C@@H](C)O)[C@@H](C)CC)[C@@H](C)CC)C(=O)N[C@@H](CCC(=O)O)C(=O)NCC(=O)NCC(=O)N1CCC[C@H]1C(=O)N[C@@H](CO)C(=O)N[C@@H](CO)C(=O)NCC(=O)N[C@@H](C)C(=O)N1CCC[C@H]1C(=O)N1CCC[C@H]1C(=O)N1CCC[C@H]1C(=O)N[C@@H](CO)C(N)=O` [Example 253] (H-Y[Aib]EGTFTSDYSILLDKK([AEEA-AEEA-γGlu-C20 diacid])AQAAFIEYLIEGGPSSGAPPPS-NH2), the Ki was above 912 nM on human Gcg receptor, 0.138 nM on human GIP receptor and 2.57 nM on human GLP-1R. In addition, the EC50 worked out at 0.109 nM in assay [1] and 0.219 nM in assay [2].

As for `CC[C@H](C)[C@H](NC(=O)[C@H](CC(C)C)NC(=O)[C@H](Cc1ccc(O)cc1)NC(=O)[C@H](CCC(=O)O)NC(=O)[C@@H](NC(=O)[C@H](Cc1ccccc1)NC(=O)[C@H](CCC(=O)O)NC(=O)C(C)(C)NC(=O)[C@H](CCC(N)=O)NC(=O)[C@H](C)NC(=O)[C@H](CCCCNC(=O)COCCOCCNC(=O)COCCOCCNC(=O)CC[C@H](NC(=O)CCCCCCCCCCCCCCCCC(=O)O)C(=O)O)NC(=O)[C@H](CCCCN)NC(=O)[C@H](CC(=O)O)NC(=O)[C@H](CC(C)C)NC(=O)[C@H](CC(C)C)NC(=O)[C@@H](NC(=O)[C@H](CO)NC(=O)[C@H](Cc1ccc(O)cc1)NC(=O)[C@H](CC(=O)O)NC(=O)[C@H](CO)NC(=O)[C@@H](NC(=O)[C@H](Cc1ccccc1)NC(=O)[C@@H](NC(=O)CNC(=O)[C@H](CCC(=O)O)NC(=O)C(C)(C)NC(=O)[C@@H](N)Cc1ccc(O)cc1)[C@@H](C)O)[C@@H](C)O)[C@@H](C)CC)[C@@H](C)CC)C(=O)N[C@@H](CCC(=O)O)C(=O)NCC(=O)NCC(N)=O` [Example 271] (H-Y[Aib]EGTFTSDYSILLDKK([AEEA-AEEA-γGlu-C18 diacid])AQ[Aib]EFIEYLIEGG-NH2), the values for the Ki on human Gcg receptor, on human GIP receptor and at human GLP-1R were above 1150 nM, 0.107 nM and 5.09 nM, respectively. The values for the EC50 in assay [1] and in assay [2] were 0.0352 nM and 0.334 nM, respectively.

For the compound `CC[C@H](C)[C@H](NC(=O)[C@H](CC(C)C)NC(=O)[C@H](Cc1ccc(O)cc1)NC(=O)[C@H](CCC(=O)O)NC(=O)[C@@H](NC(=O)[C@H](Cc1ccccc1)NC(=O)[C@H](C)NC(=O)[C@H](Cc1c[nH]cn1)NC(=O)[C@H](CCC(N)=O)NC(=O)[C@H](C)NC(=O)[C@H](CCCCNC(=O)COCCOCCNC(=O)COCCOCCNC(=O)CC[C@H](NC(=O)CCCCCCCCCCCCCCCCC(=O)O)C(=O)O)NC(=O)[C@H](CCCCN)NC(=O)[C@H](CC(=O)O)NC(=O)[C@H](CC(C)C)NC(=O)[C@H](CC(C)C)NC(=O)[C@@H](NC(=O)[C@H](CO)NC(=O)[C@H](Cc1ccc(O)cc1)NC(=O)[C@H](CC(=O)O)NC(=O)[C@H](CO)NC(=O)[C@@H](NC(=O)[C@H](Cc1ccccc1)NC(=O)[C@@H](NC(=O)CNC(=O)[C@H](CCC(=O)O)NC(=O)C(C)(C)NC(=O)[C@@H](N)Cc1ccc(O)cc1)[C@@H](C)O)[C@@H](C)O)[C@@H](C)CC)[C@@H](C)CC)C(=O)N[C@@H](CCC(=O)O)C(=O)NCC(=O)NCC(N)=O` [Example 295] (H-Y[Aib]EGTFTSDYSILLDKK([AEEA-AEEA-γGlu-C18 diacid])AQHAFIEYLIEGG-NH2), the Ki on human Gcg receptor was above 1000 nM; at human GIP receptor it was 0.181 nM; at human GLP-1R, 4.12 nM. For the same compound, the concentration for a half-maximal effect (EC50) in assay [1] worked out at 0.116 nM; in assay [2], 0.281 nM.

Regarding `CC[C@H](C)[C@H](NC(=O)[C@H](CC(C)C)NC(=O)[C@H](Cc1ccc(O)cc1)NC(=O)[C@H](CCCC(=O)O)NC(=O)[C@@H](NC(=O)[C@H](Cc1ccccc1)NC(=O)[C@H](CCC(=O)O)NC(=O)C(C)(C)NC(=O)[C@H](CCC(N)=O)NC(=O)[C@H](C)NC(=O)[C@H](CCCCNC(=O)COCCOCCNC(=O)COCCOCCNC(=O)CC[C@H](NC(=O)CCCCCCCCCCCCCCCCCCC(=O)O)C(=O)O)NC(=O)[C@H](CCC(=O)O)NC(=O)[C@H](CC(=O)O)NC(=O)[C@H](CC(C)C)NC(=O)[C@](C)(CC(C)C)NC(=O)[C@@H](NC(=O)[C@H](CO)NC(=O)[C@H](Cc1ccc(O)cc1)NC(=O)[C@H](CC(=O)O)NC(=O)[C@H](CO)NC(=O)[C@@H](NC(=O)[C@](C)(Cc1ccccc1F)NC(=O)[C@@H](NC(=O)CNC(=O)[C@H](CCC(=O)O)NC(=O)C(C)(C)NC(=O)[C@@H](N)Cc1ccc(O)cc1)[C@@H](C)O)[C@@H](C)O)[C@@H](C)CC)[C@@H](C)CC)C(=O)N[C@@H](CCC(=O)O)C(=O)NCC(=O)NCC(=O)N1CCC[C@H]1C(=O)N[C@@H](CO)C(=O)N[C@@H](CO)C(=O)NCC(=O)N[C@@H](C)C(=O)N1CCC[C@H]1C(=O)N1CCC[C@H]1C(=O)N1CCC[C@H]1C(=O)N[C@@H](CO)C(N)=O` [Example 147] (H-Y[Aib]EGT[αMePhe(2-F)]TSDYSI[αMeL]LDEK([AEEA-AEEA-γGlu-C20 diacid])AQ[Aib]EFI[Aad]YLIEGGPSSGAPPPS-NH2), the inhibitory constant (Ki) came out at 64.9 nM on human Gcg receptor, 0.0981 nM on human GIP receptor and 4.47 nM at human GLP-1R. For the same compound, the values for the EC50 in assay [1] and in assay [2] were 0.0527 nM and 0.0304 nM, respectively.
